These results are taken from patent US20070265456A1, “Novel crystal forms of atorvastatin hemi-calcium and processes for their preparation as well as novel processes for preparing other forms” (priority 2006, published 2007).

The data set in a line: Stability testing against formation of the impurities atorvastatin-epoxy-dihydroxy (AED) and epoxydiketone on storage. It is filed as physicochemical. Set-up: key to ATV-epoxy-diketone: impurity content in % (w/w). As for the experimental part:
As used herein, the term “stable” in reference to atorvastatin hemi-calcium Form VIII relates to the formation of […] 0.01% (w/w) of the impurity AED. The stability of Form VIII is measured by maintaining Form VIII at a temperature of about 40° C. at a relative humidity of about 75% for at least about 1 month, or at a temperature of about 25° C. at a relative humidity of about 60% for at least about 6 months. Stable atorvastatin hemi-calcium Form VIII is a Form VIII in which no more than about 0.01% (w/w) of the AED impurity is formed when maintained under the conditions specified above.
The atorvastatin hemi-calcium crystalline produced above was dried by two steps: In a vacuum dryer at about 40° C. by 3 cycles and after the LOD<5% was reached the drying was continued in a fluid bed dryer at about 50° C. The dry material was milled and micronized.
The dried, milled, atorvastatin hemi-calcium crystalline was tested for stability against the formation of two potential impurities: atorvastatin-epoxy-dihydroxy (AED) and epoxydiketone.

Setting [1] is: 0 (5 m at storage) (Test Sample B).
The mark [2] stands for this setting: 1 m/25° C./60% RH (Test Sample E).
Where [3] appears, read: 1 m/40° C./75% RH (Test Sample I).
The mark [4] stands for this setting: 2 m/25° C./60% RH (Test Sample F).
Setting [5] is: 2 m/40° C./75% RH (Test Sample J).
Setting [6] is: 3 m/25° C./60% RH (Test Sample G).
Setting [7] is: 3 m/40° C./75% RH (Test Sample K).
The mark [8] stands for this setting: 6 m/25° C./60% RH (Test Sample H).
Where [9] appears, read: 6 m/40° C./75% RH (Test Sample L).

As to `CC(C)c1c(C(=O)Nc2ccccc2)c(-c2ccccc2)c(-c2ccc(F)cc2)n1CC[C@@H](O)C[C@@H](O)CC(=O)O` (relative stereo) [atorvastatin hemi-calcium crystalline, atorvastatin hemi-calcium], the ATV-epoxy-dihydroxy (AED) by setting is: under setting [1], < 0.01 % (w/w); under setting [2], < 0.01 % (w/w); under setting [3], < 0.01 % (w/w); under setting [4], < 0.01 % (w/w); under setting [5], < 0.05 % (w/w); (3 m/2-8° C. (Test Sample C)) < 0.01 % (w/w). Besides, the ATV-epoxy-dihydroxy (AED) under setting [6] was < 0.01 % (w/w); the ATV-epoxy-dihydroxy (AED) under setting [7] is < 0.05 % (w/w); the ATV-epoxy-dihydroxy (AED) (6 m/2-8° C. (Test Sample D)) was < 0.05 % (w/w); the ATV-epoxy-dihydroxy (AED) under setting [8] was < 0.01 % (w/w); the ATV-epoxy-dihydroxy (AED) under setting [9] is < 0.05 % (w/w); the ATV-epoxy-dihydroxy (AED) (release (Test Sample A)) was < 0.01 % (w/w). Moreover, the ATV-epoxy-diketone by setting is: under setting [1], below 0.01; under setting [2], below 0.01; under setting [3], below 0.05; under setting [4], below 0.05; under setting [5], below 0.05; (3 m/2-8° C. (Test Sample C)) below 0.05. Further, the ATV-epoxy-diketone runs as follows: under setting [6], below 0.05; under setting [7], 0.05; (6 m/2-8° C. (Test Sample D)) below 0.05; under setting [8], below 0.05; under setting [9], 0.05; (release (Test Sample A)) below 0.01.
